Experiments:
Assay in all cases: relative viability (nuclei count vs DMSO), 5 days (fraction); higher = more cells survive
NCI-H838 = system: NCI-H838
Summary of the method: (§1)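 Nuclei were stained with Hoechst during a one-step fixation (final 0.05% Triton X-100, 1% formaldehyde, 1 ug/ml Hoechst) carried out 5 days after dosing, then counted on 4× images. The cells, lung cancer lines in 1536-well plates, had been dosed by pin tool the day after seeding with one drug alone or a fixed anchor-drug dose plus five library-drug doses (not always all listed) in √10 steps. Relative viability is the nuclei count in treated wells divided by that in vehicle wells, and each value is the median of duplicate plates.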

201T = system: 201T
Summary of the method: as §1

NCI-H2342 = system: NCI-H2342
Summary of the method: as §1

NCI-H2009 = system: NCI-H2009
Summary of the method: as §1

NCI-H23 = system: NCI-H23
Summary of the method: as §1

NCI-H2126 = system: NCI-H2126
Summary of the method: as §1

NCI-H2405 = system: NCI-H2405
Summary of the method: as §1

NCI-H661 = system: NCI-H661
Summary of the method: as §1

NCI-H1355 = system: NCI-H1355
Summary of the method: as §1

NCI-H322M = system: NCI-H322M
Summary of the method: as §1

EPLC-272H = system: EPLC-272H
Summary of the method: as §1

NCI-H1395 = system: NCI-H1395
Summary of the method: as §1

NCI-H647 = system: NCI-H647
Summary of the method: as §1

LCLC-97TM1 = system: LCLC-97TM1
Summary of the method: as §1

PC-14 = system: PC-14
Summary of the method: as §1

NCI-H2085 = system: NCI-H2085
Summary of the method: as §1

HCC-15 = system: HCC-15
Summary of the method: as §1

NCI-H2228 = system: NCI-H2228
Summary of the method: as §1

BEN = system: BEN
Summary of the method: as §1

LU99A = system: LU99A
Summary of the method: as §1

NCI-H650 = system: NCI-H650
Summary of the method: as §1

NCI-H460 = system: NCI-H460
Summary of the method: as §1

For `Cc1cn(-c2cc(NC(=O)c3ccc(C)c(Nc4nccc(-c5cccnc5)n4)c3)cc(C(F)(F)F)c2)cn1` [Nilotinib] + CCNC(=O)c1noc(-c2cc(C(C)C)c(O)cc2O)c1-c1ccc(CN2CCOCC2)cc1 [Luminespib] (partner 0.01 µM), the relative viability (NCI-H838; first compound 0.001 µM) was 0.24, the relative viability (NCI-H838; first compound 0.003162 µM) was 0.276 and the relative viability (NCI-H838; first compound 0.01 µM) was 0.308. The relative viability (NCI-H838; first compound 0.03162 µM) was 0.273, the relative viability (NCI-H838; first compound 0.1 µM) was 0.208 and the relative viability (201T; first compound 0.003162 µM) was 1.13. The relative viability (201T; first compound 0.01 µM) was 1.16, the relative viability (201T; first compound 0.03162 µM) was 1.11 and the relative viability (201T; first compound 0.1 µM) was 1.03. The relative viability (NCI-H2342; first compound 0.001 µM) was 0.595, the relative viability (NCI-H2342; first compound 0.003162 µM) was 0.675 and the relative viability (NCI-H2342; first compound 0.01 µM) was 0.698. For the same compound, the relative viability (NCI-H2342; first compound 0.03162 µM) was 0.586, the relative viability (NCI-H2342; first compound 0.1 µM) was 0.673 and the relative viability (NCI-H2009; first compound 0.001 µM) was 0.886. It also gave a relative viability (NCI-H2009; first compound 0.003162 µM) of 1.14, a relative viability (NCI-H2009; first compound 0.01 µM) of 1.16 and a relative viability (NCI-H2009; first compound 0.03162 µM) of 0.955. For the same compound, the relative viability (NCI-H2009; first compound 0.1 µM) was 1.12, the relative viability (NCI-H23; first compound 0.001 µM) was 0.204 and the relative viability (NCI-H23; first compound 0.01 µM) was 0.205. For the same compound, the relative viability (NCI-H23; first compound 0.03162 µM) was 0.19, the relative viability (NCI-H23; first compound 0.1 µM) was 0.195 and the relative viability (NCI-H2126; first compound 0.001 µM) was 0.832. For the same compound, the relative viability (NCI-H2126; first compound 0.003162 µM) was 1, the relative viability (NCI-H2126; first compound 0.01 µM) was 1.1 and the relative viability (NCI-H2126; first compound 0.03162 µM) was 0.936. For the same compound, the relative viability (NCI-H2126; first compound 0.1 µM) was 0.596, the relative viability (NCI-H2405; first compound 0.001 µM) was 0.76 and the relative viability (NCI-H2405; first compound 0.003162 µM) was 0.575. It also gave a relative viability (NCI-H2405; first compound 0.01 µM) of 0.756, a relative viability (NCI-H2405; first compound 0.03162 µM) of 0.448 and a relative viability (NCI-H2405; first compound 0.1 µM) of 0.658. For the same compound, the relative viability (NCI-H661; first compound 0.001 µM) was 1.01, the relative viability (NCI-H661; first compound 0.003162 µM) was 0.961 and the relative viability (NCI-H661; first compound 0.03162 µM) was 1.01. It also gave a relative viability (NCI-H661; first compound 0.1 µM) of 0.832, a relative viability (NCI-H1355; first compound 0.001 µM) of 0.542 and a relative viability (NCI-H1355; first compound 0.003162 µM) of 0.7. It also gave a relative viability (NCI-H1355; first compound 0.01 µM) of 0.644, a relative viability (NCI-H1355; first compound 0.03162 µM) of 0.549 and a relative viability (NCI-H1355; first compound 0.1 µM) of 0.654. It also gave a relative viability (NCI-H322M; first compound 0.001 µM) of 1.08, a relative viability (NCI-H322M; first compound 0.003162 µM) of 0.481 and a relative viability (NCI-H322M; first compound 0.01 µM) of 1.08. For the same compound, the relative viability (NCI-H322M; first compound 0.03162 µM) was 0.797, the relative viability (NCI-H322M; first compound 0.1 µM) was 1.02 and the relative viability (EPLC-272H; first compound 0.001 µM) was 0.134. The relative viability (EPLC-272H; first compound 0.003162 µM) was 0.205, the relative viability (EPLC-272H; first compound 0.01 µM) was 0.277 and the relative viability (EPLC-272H; first compound 0.03162 µM) was 0.265. For the same compound, the relative viability (EPLC-272H; first compound 0.1 µM) was 0.175, the relative viability (NCI-H1395; first compound 0.001 µM) was 0.713 and the relative viability (NCI-H1395; first compound 0.003162 µM) was 0.39. For the same compound, the relative viability (NCI-H1395; first compound 0.01 µM) was 0.702, the relative viability (NCI-H1395; first compound 0.03162 µM) was 0.713 and the relative viability (NCI-H1395; first compound 0.1 µM) was 0.814. The relative viability (NCI-H647; first compound 0.001 µM) was 0.228, the relative viability (NCI-H647; first compound 0.003162 µM) was 0.194 and the relative viability (NCI-H647; first compound 0.01 µM) was 0.194. The relative viability (NCI-H647; first compound 0.03162 µM) was 0.129, the relative viability (NCI-H647; first compound 0.1 µM) was 0.161 and the relative viability (LCLC-97TM1; first compound 0.001 µM) was 0.795. For the same compound, the relative viability (LCLC-97TM1; first compound 0.003162 µM) was 0.868, the relative viability (LCLC-97TM1; first compound 0.01 µM) was 0.741 and the relative viability (LCLC-97TM1; first compound 0.03162 µM) was 0.607. For the same compound, the relative viability (LCLC-97TM1; first compound 0.1 µM) was 0.641, the relative viability (PC-14; first compound 0.001 µM) was 0.168 and the relative viability (PC-14; first compound 0.003162 µM) was 0.152. The relative viability (PC-14; first compound 0.01 µM) was 0.138, the relative viability (PC-14; first compound 0.03162 µM) was 0.123 and the relative viability (PC-14; first compound 0.1 µM) was 0.153. The relative viability (NCI-H2085; first compound 0.001 µM) was 0.392, the relative viability (NCI-H2085; first compound 0.003162 µM) was 0.46 and the relative viability (NCI-H2085; first compound 0.01 µM) was 0.427. The relative viability (NCI-H2085; first compound 0.03162 µM) was 0.375, the relative viability (NCI-H2085; first compound 0.1 µM) was 0.382 and the relative viability (HCC-15; first compound 0.001 µM) was 0.241. It also gave a relative viability (HCC-15; first compound 0.003162 µM) of 0.431, a relative viability (HCC-15; first compound 0.01 µM) of 0.486 and a relative viability (HCC-15; first compound 0.03162 µM) of 0.219. It also gave a relative viability (HCC-15; first compound 0.1 µM) of 0.325, a relative viability (NCI-H2228; first compound 0.003162 µM) of 0.161 and a relative viability (NCI-H2228; first compound 0.01 µM) of 0.183. It also gave a relative viability (NCI-H2228; first compound 0.03162 µM) of 0.151, a relative viability (NCI-H2228; first compound 0.1 µM) of 0.0953 and a relative viability (BEN; first compound 0.001 µM) of 0.563. For the same compound, the relative viability (BEN; first compound 0.003162 µM) was 0.275, the relative viability (BEN; first compound 0.01 µM) was 0.378 and the relative viability (BEN; first compound 0.03162 µM) was 0.277. It also gave a relative viability (BEN; first compound 0.1 µM) of 0.256, a relative viability (LU99A; first compound 0.001 µM) of 0.227 and a relative viability (LU99A; first compound 0.01 µM) of 0.274. The relative viability (LU99A; first compound 0.03162 µM) was 0.219, the relative viability (LU99A; first compound 0.1 µM) was 0.213 and the relative viability (NCI-H650; first compound 0.001 µM) was 0.687. For the same compound, the relative viability (NCI-H650; first compound 0.003162 µM) was 0.564, the relative viability (NCI-H650; first compound 0.01 µM) was 0.792 and the relative viability (NCI-H650; first compound 0.03162 µM) was 0.742. The relative viability (NCI-H650; first compound 0.1 µM) was 0.79, the relative viability (NCI-H460; first compound 0.001 µM) was 0.0351 and the relative viability (NCI-H460; first compound 0.003162 µM) was 0.0386. For the same compound, the relative viability (NCI-H460; first compound 0.01 µM) was 0.0279, the relative viability (NCI-H460; first compound 0.03162 µM) was 0.0273 and the relative viability (NCI-H460; first compound 0.1 µM) was 0.0271.

From the supplement of paper PMC10307832
